Data taken from US8044094B2, “Agents for preventing and treating disorders connected to impaired neurotransmission” (DSM IP Assets B.V., priority 2004, dated 2011).

Experiments:
mice = assay: Porsolt's swim test (Behavioural Despair Test); type: in vivo; conditions: for Duration of immobility ± Standard Error of Mean: 30 minutes before the test, last 4 of 6 minutes
Protocol: The “Behavioural Despair Test” or “Porsolt's Forced Swim Test” is a validated animal model for depression (see T. Nagatsu, NeuroToxicology 2004, 25, 11-20, especially p. 16, right column in the middle, in combination with Porsolt et al., Arch. Int. Pharmacodyn. 1977, 229, 327-336). It responds to enhancement of the transmission of several neurotransmitters including serotonine, dopamine and noradrenaline.
The test, which detects antidepressant activity, was carried out as described by Porsolt et al. in Arch. Int. Pharmacodyn. 1977, 229, 327-336. Mice which are forced to swim in a situation from which they cannot escape rapidly become immobile. Antidepressants decrease the duration of immobility.
Mice were individually placed in a cylinder (Height=24 cm, Diameter=13 cm) containing 10 cm water (22° C.) from which they could not escape. The mice were placed in the water for 6 minutes and the duration of immobility during the last 4 minutes was measured.
10 mice were studied per each of the four groups. The test was performed blind, i.e. the person carrying out the experiment was different from the person injecting the mice and didn't thus know to which of the four groups each mouse belonged.
Obliquin was evaluated at 3 doses each: at 10, 30, and 80 mg/kg body weight, administered intraperitonally 30 minutes before the test, and compared with a control group. The thus administered obliquin was dissolved in a saline solution containing 3 weight-% DMSO and 3 weight-% Tween® 80 (so called “vehicle”). To the control group the vehicle consisting of the saline solution containing 3 weight-% DMSO and 3 weight-% Tween® 80 was administered intraperitonally.
Data were analyzed by comparing the treated groups with the control group using the unpaired Student's T tests and Analysis of Variance (ANOVA).

[1] = molecular target: human serotonin re-uptake transporter (hSERT) (Homo sapiens, UniProt P31645); assay: Serotonin uptake inhibition in HEK-293 cells stably expressing hSERT; type: cell-based; conditions: transfected HEK-293 cells; Ki from IC50 by Cheng-Prusoff; 20 nM (3H) serotonin; read-out: Inhibition constant Ki for tritiated serotonin uptake
Protocol: HEK-293 cells stably expressing the human serotonin re-uptake transporter (hSERT) were obtained from R. Blakely, Vanderbilt University, USA. The cells were routinely grown in Dulbeco's Modified Eagles Medium, purchased from Bioconcept, Allschwil, Switzerland containing 10% fetal calf serum, penicillin, streptomycin, L-glutamine and the antibiotic G418 and passaged by trypsinisation. 1 day prior to the assay cells were seeded in the above mentioned medium. Immediately prior to the assay the medium was replaced by Krebs Ringers bicarbonate buffer, purchased from Sigma Chemicals Ltd., supplemented with 35 μM pargyline, 2.2 mM CaCl2, 1 mM ascorbic acid and 5 mM N-2-hydroxyethylpiperazine-N′-2-ethanesulfonic acid (buffer called “Hepes”). Serotonin uptake into the cells was determined by addition of radio-labeled (3H) serotonin (Amersham Biosciences GE Healthcare, Slough, UK) to a concentration of 20 nM, and incubation for 30 minutes at room temperature. Following removal of unincorporated label by gentle washing three times with the above buffer, incorporated serotonin was quantified by liquid scintillation counting.
The effect of the coumarin ethers of formula I on the serotonin uptake and the citalopram binding was determined by its inclusion in the assay at a range of concentrations between 0.03 and 100 μM for 10 minutes prior to and during the addition of (3H) serotonin/citalopram. Serotonin uptake via the transporter and citalopram binding were both inhibited by the coumarin ethers of formula I in a dose dependent manner. The calculated inhibition constants Ki, derived from the measured IC50 using the Cheng—Prusoff equation (Y. C. Cheng, W. H. Prusoff, Biochem. Pharmacol. 1973, 22, p. 3099-3108), for inhibition of serotonin uptake and citalopram binding by coumarin ethers of the formula I are shown in Table 1.

Chain of human serotonin re-uptake transporter (hSERT) (P31645 whole entry): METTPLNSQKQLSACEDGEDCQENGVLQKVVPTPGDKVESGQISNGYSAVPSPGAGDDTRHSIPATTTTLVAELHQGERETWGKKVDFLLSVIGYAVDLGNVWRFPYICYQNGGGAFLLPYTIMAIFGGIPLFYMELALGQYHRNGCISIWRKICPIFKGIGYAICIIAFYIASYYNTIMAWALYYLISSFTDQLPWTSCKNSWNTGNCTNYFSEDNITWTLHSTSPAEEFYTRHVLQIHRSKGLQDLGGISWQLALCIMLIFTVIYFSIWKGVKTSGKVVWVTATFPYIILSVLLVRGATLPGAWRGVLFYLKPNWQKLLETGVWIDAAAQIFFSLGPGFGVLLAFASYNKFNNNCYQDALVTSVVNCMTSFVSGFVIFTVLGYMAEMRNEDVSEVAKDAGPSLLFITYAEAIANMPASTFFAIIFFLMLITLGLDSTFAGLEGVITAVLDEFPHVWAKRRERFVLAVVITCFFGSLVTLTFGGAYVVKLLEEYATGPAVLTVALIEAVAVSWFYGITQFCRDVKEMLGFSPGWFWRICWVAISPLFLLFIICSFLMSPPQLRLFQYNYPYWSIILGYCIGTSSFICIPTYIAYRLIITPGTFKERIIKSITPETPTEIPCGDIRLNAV

Question: For C=C(C)[C@H]1COc2cc3oc(=O)ccc3cc2O1 (racemic) [Obliquin, obliquin], which “Duration of immobility ± Standard Error of Mean” value (mice; mice, 10 mg/kg body weight i.p.) is on record?
Answer: 170.4 ± 11.1 s

Question: What about the “Duration of immobility ± Standard Error of Mean” value (mice; mice, 30 mg/kg body weight i.p.) of the same compound?
Answer: 150.9 ± 9.6 s

Question: What about the “Duration of immobility ± Standard Error of Mean” value (mice; mice, 80 mg/kg body weight i.p., p < 0.01 vs control) of the same compound?
Answer: 132.1 ± 10.5 s

Question: And the “Dose dependence of effect on immobility time” value (mice; mice, 10, 30, 80 mg/kg i.p., ANOVA p<0.05)?
Answer: significant dose dependent effect

Question: And the “Reduction of immobility time” value (mice; mice, highest dose group (80 mg/kg i.p.), vs control group)?
Answer: 25%

Question: What about the Ki [1] of the same compound?
Answer: 4.9 µM
